{
  "source": "ChEMBL document CHEMBL2073779",
  "about": "“pH-dependent bidirectional transport of weakly basic drugs across Caco-2 monolayers: implications for drug-drug interactions” (Pharm Res, 2003)",
  "biological_target": "ATP-dependent translocase ABCB1 (Homo sapiens, UniProt P08183)",
  "sequence (P08183 whole entry)": "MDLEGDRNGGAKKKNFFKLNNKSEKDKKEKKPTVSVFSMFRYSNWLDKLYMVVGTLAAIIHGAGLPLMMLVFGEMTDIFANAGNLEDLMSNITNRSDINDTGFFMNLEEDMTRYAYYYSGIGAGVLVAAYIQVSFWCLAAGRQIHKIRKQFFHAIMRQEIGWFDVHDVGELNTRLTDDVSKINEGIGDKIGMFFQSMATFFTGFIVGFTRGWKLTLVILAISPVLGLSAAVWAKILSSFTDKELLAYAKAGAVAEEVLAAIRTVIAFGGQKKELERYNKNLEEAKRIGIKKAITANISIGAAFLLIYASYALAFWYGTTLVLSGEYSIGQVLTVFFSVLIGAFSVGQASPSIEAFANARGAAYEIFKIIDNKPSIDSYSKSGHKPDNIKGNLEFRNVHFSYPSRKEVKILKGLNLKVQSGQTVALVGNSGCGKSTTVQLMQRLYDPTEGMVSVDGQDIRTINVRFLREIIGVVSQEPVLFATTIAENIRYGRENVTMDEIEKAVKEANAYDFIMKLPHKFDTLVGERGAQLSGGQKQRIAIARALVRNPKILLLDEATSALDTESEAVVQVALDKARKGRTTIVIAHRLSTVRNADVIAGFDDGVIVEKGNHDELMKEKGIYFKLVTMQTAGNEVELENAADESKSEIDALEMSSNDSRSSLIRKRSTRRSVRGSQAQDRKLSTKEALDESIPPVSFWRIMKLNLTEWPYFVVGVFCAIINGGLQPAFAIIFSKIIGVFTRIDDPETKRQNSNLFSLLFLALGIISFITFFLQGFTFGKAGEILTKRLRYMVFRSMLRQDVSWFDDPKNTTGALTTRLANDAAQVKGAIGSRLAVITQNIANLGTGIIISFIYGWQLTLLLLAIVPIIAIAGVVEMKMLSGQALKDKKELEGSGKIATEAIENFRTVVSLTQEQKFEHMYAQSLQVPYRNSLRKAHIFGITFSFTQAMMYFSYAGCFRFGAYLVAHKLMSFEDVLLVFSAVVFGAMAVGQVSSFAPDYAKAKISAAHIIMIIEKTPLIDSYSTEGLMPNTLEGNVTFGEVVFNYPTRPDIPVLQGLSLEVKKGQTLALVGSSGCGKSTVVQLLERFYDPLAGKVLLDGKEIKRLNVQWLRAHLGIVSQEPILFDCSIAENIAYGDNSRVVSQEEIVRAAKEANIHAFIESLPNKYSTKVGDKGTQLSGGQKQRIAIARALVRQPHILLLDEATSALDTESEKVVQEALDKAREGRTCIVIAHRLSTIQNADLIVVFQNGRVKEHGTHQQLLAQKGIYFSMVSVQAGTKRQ",
  "assay": "TP_TRANSPORTER: transepithelial transport in Caco-2 cells",
  "assay_type": "functional, cell-based",
  "data": [
    {"compound": "C[C@H]1O[C@@H](O[C@H]2[C@@H](O)C[C@H](O[C@H]3[C@@H](O)C[C@H](O[C@H]4CC[C@@]5(C)[C@H](CC[C@@H]6[C@@H]5C[C@@H](O)[C@]5(C)[C@@H](C7=CC(=O)OC7)CC[C@]65O)C4)O[C@@H]3C)O[C@@H]2C)C[C@H](O)[C@@H]1O", "note": "[DIGOXIN]", "values": [
      {"measurement": "Activity", "result": "substrate [+]"}
    ]},
    {"compound": "COCCc1ccc(OCC(O)CNC(C)C)cc1", "note": "(configuration not stated) [METOPROLOL]", "values": [
      {"measurement": "Activity", "result": "is not a substrate [-]"}
    ]}
  ]
}
